Laboratory results as given in patent publication US20060052370A1, “Methods and compositions for treating nociceptive pain” (priority 2004, published 2006).
“Also recorded” adds a separate entry of the source. Where two headings read alike, the source gives them in different places.

Assays:
[1] = humans; cited from earlier work
[2] = memantine and morphine combination
[3] = humans; cited from earlier work; remark: listed apart in the source

Row | SMILES | Human PK (t½) [1] | Tmax [1] | cum. fraction ([2]; Time 1) | cum. fraction ([2]; Time 2) | cum. fraction ([2]; Time 4) | cum. fraction ([2]; Time 8) | cum. fraction ([2]; Time 12) | cum. fraction ([2]; Time 16) | cum. fraction ([2]; Time 20) | cum. fraction ([2]; Time 24) | Dose Dependent Tox [3]
1 | NC12CC3CC(CC(C3)C1)C2 [Amantadine, 1-amino-adamantane] | 15 h | 3 h |  |  |  |  |  |  |  |  | 
2 | CC12CC3CC(C)(C1)CC(N)(C3)C2 [Memantine, 1-amino-3,5-dimethyladamantane] |  | 3 h | 0.2 | 0.3 | 0.4 | 0.5 | 0.6 | 0.7 | 0.8 | 0.9 | Dose escalation; also recorded: hallucination
3 | CN1CC[C@]23c4c5ccc(O)c4O[C@H]2[C@@H](O)C=C[C@H]3[C@H]1C5 [Morphine] |  |  | 0.2 | 0.3 | 0.4 | 0.5 | 0.6 | 0.7 | 0.8 | 0.9 | 
4 | CC(N)C12CC3CC(CC(C3)C1)C2 (stereo not shown) [Rimantadine, 1-(1-aminoethyl)adamantane] | 25 h | 6 h |  |  |  |  |  |  |  |  | 
